# Test system: 126254-015-R-J1-PDC complex spheroid growth, % test/control
# Assay: Anticancer human tumor 126254-015-R-J1-PDC patient-derived soft tissue sarcoma cell line growth inhibition [Asc]
# Details: for IC50: curve of first compound; for viability, T/C: stronger effect = lower value
# In short: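 Complex solid-tumor spheroids incorporating human endothelial and mesenchymal stem cells received single agents or combinations over half-log dilution ranges anchored to clinical Cmax.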
# [1] = second compound 0.1 µM, first compound 0.0316 µM
# [2] = second compound 0.1 µM, first compound 0.1 µM
# [3] = second compound 0.1 µM, first compound 0.316 µM
# [4] = second compound 0.1 µM, first compound 1 µM
# [5] = second compound 0.316 µM, first compound 0.0316 µM
# [6] = second compound 0.316 µM, first compound 0.1 µM
# [7] = second compound 0.316 µM, first compound 0.316 µM
# [8] = second compound 0.316 µM, first compound 1 µM
# [9] = second compound 1 µM, first compound 0.0316 µM
# [10] = second compound 1 µM, first compound 0.1 µM
# [11] = second compound 1 µM, first compound 0.316 µM
# [12] = second compound 1 µM, first compound 1 µM
# [13] = second compound 3.16 µM, first compound 0.0316 µM
# [14] = second compound 3.16 µM, first compound 0.1 µM
# [15] = second compound 3.16 µM, first compound 0.316 µM
# [16] = second compound 3.16 µM, first compound 1 µM
# [17] = second compound 10 µM, first compound 0.0316 µM
# [18] = second compound 10 µM, first compound 0.1 µM
# [19] = second compound 10 µM, first compound 0.316 µM
# [20] = second compound 10 µM, first compound 1 µM
# [21] = second compound 0.1 µM, first compound 0.00316 µM
# [22] = second compound 0.1 µM, first compound 0.01 µM
# [23] = second compound 0.316 µM, first compound 0.00316 µM
# [24] = second compound 0.316 µM, first compound 0.01 µM
# [25] = second compound 1 µM, first compound 0.00316 µM
# [26] = second compound 1 µM, first compound 0.01 µM
# [27] = second compound 3.16 µM, first compound 0.00316 µM
# [28] = second compound 3.16 µM, first compound 0.01 µM
# [29] = second compound 10 µM, first compound 0.00316 µM
# [30] = second compound 10 µM, first compound 0.01 µM
# 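Also: spheroids exposed to compound for seven days.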
# 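For viability, T/C in this document: 100% = DMSO vehicle control wells.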
structure (smiles),measurement,setting,value
C=CC(=O)N1CCN(c2nc(=O)n(-c3c(C)ccnc3C(C)C)c3nc(-c4c(O)cccc4F)c(F)cc23)C(C)C1 (stereo not given) + Cc1c(S(C)(=O)=O)c(-c2cc(F)cc(N3CCN(c4ccc(NS(=O)(=O)c5ccc(NC(CCN6CCC(C(=O)OCCCP(=O)(O)O)CC6)CSc6ccccc6)c(S(=O)(=O)C(F)(F)F)c5)cc4)CC3)c2)c(-c2ccc(Cl)cc2)n1C(C)C,IC50,second compound 0.1 µM,> 10000 nM
same,IC50,second compound 0.316 µM,> 10000 nM
same,IC50,second compound 1 µM,> 10000 nM
same,IC50,second compound 3.16 µM,> 10000 nM
same,IC50,second compound 10 µM,> 10000 nM
same,"viability, T/C",[1],89.8%
same,"viability, T/C",[2],89.4%
same,"viability, T/C",[3],95.8%
same,"viability, T/C",[4],103%
same,"viability, T/C","second compound 0.1 µM, first compound 3.16 µM",101%
same,"viability, T/C","second compound 0.1 µM, first compound 10 µM",76.3%
same,"viability, T/C",[5],90.5%
same,"viability, T/C",[6],86.2%
same,"viability, T/C",[7],96.5%
same,"viability, T/C",[8],91.2%
same,"viability, T/C","second compound 0.316 µM, first compound 3.16 µM",107%
same,"viability, T/C","second compound 0.316 µM, first compound 10 µM",84.1%
same,"viability, T/C",[9],93.9%
same,"viability, T/C",[10],89%
same,"viability, T/C",[11],91.2%
same,"viability, T/C",[12],93%
same,"viability, T/C","second compound 1 µM, first compound 3.16 µM",92.8%
same,"viability, T/C","second compound 1 µM, first compound 10 µM",77.6%
same,"viability, T/C",[13],83.8%
same,"viability, T/C",[14],91.5%
same,"viability, T/C",[15],90.9%
same,"viability, T/C",[16],93.2%
same,"viability, T/C","second compound 3.16 µM, first compound 3.16 µM",101%
same,"viability, T/C","second compound 3.16 µM, first compound 10 µM",78.1%
same,"viability, T/C",[17],91.3%
same,"viability, T/C",[18],94.1%
same,"viability, T/C",[19],105%
same,"viability, T/C",[20],87%
same,"viability, T/C","second compound 10 µM, first compound 3.16 µM",91.7%
same,"viability, T/C","second compound 10 µM, first compound 10 µM",81.6%
COc1c(OCCCN2CCOCC2)ccc2c3n(c(=NC(=O)c4cnc(N)nc4)nc12)CCN3 + Cc1c(S(C)(=O)=O)c(-c2cc(F)cc(N3CCN(c4ccc(NS(=O)(=O)c5ccc(NC(CCN6CCC(C(=O)OCCCP(=O)(O)O)CC6)CSc6ccccc6)c(S(=O)(=O)C(F)(F)F)c5)cc4)CC3)c2)c(-c2ccc(Cl)cc2)n1C(C)C,IC50,second compound 0.1 µM,48.5 nM
same,IC50,second compound 0.316 µM,43.8 nM
same,IC50,second compound 1 µM,47.9 nM
same,IC50,second compound 3.16 µM,42 nM
same,IC50,second compound 10 µM,45.3 nM
same,"viability, T/C",[21],96.5%
same,"viability, T/C",[22],84.5%
same,"viability, T/C",[1],63.5%
same,"viability, T/C",[2],28.3%
same,"viability, T/C",[3],16%
same,"viability, T/C",[4],8.08%
same,"viability, T/C",[23],88%
same,"viability, T/C",[24],76.6%
same,"viability, T/C",[5],59.1%
same,"viability, T/C",[6],29.7%
same,"viability, T/C",[7],15.3%
same,"viability, T/C",[8],8.05%
same,"viability, T/C",[25],83.7%
same,"viability, T/C",[26],75.5%
same,"viability, T/C",[9],61.9%
same,"viability, T/C",[10],30.4%
same,"viability, T/C",[11],14.9%
same,"viability, T/C",[12],8.15%
same,"viability, T/C",[27],77.5%
same,"viability, T/C",[28],77.5%
same,"viability, T/C",[13],54.9%
same,"viability, T/C",[14],30.1%
same,"viability, T/C",[15],14.3%
same,"viability, T/C",[16],8.66%
same,"viability, T/C",[29],84.2%
same,"viability, T/C",[30],87.7%
same,"viability, T/C",[17],55.6%
same,"viability, T/C",[18],30.6%
same,"viability, T/C",[19],15.8%
same,"viability, T/C",[20],7.09%
NC(=O)C(=Cn1cnc(-c2cc(C(F)(F)F)cc(C(F)(F)F)c2)n1)c1cncnc1 + Cc1c(S(C)(=O)=O)c(-c2cc(F)cc(N3CCN(c4ccc(NS(=O)(=O)c5ccc(NC(CCN6CCC(C(=O)OCCCP(=O)(O)O)CC6)CSc6ccccc6)c(S(=O)(=O)C(F)(F)F)c5)cc4)CC3)c2)c(-c2ccc(Cl)cc2)n1C(C)C,IC50,second compound 0.1 µM,30.5 nM
same,IC50,second compound 0.316 µM,37.3 nM
same,IC50,second compound 1 µM,31.5 nM
same,IC50,second compound 3.16 µM,29.6 nM
same,IC50,second compound 10 µM,26.1 nM
same,"viability, T/C","second compound 0.1 µM, first compound 0.000949 µM",98.5%
same,"viability, T/C","second compound 0.1 µM, first compound 0.003 µM",93.8%
same,"viability, T/C","second compound 0.1 µM, first compound 0.00949 µM",74.5%
same,"viability, T/C","second compound 0.1 µM, first compound 0.03 µM",53.2%
same,"viability, T/C","second compound 0.1 µM, first compound 0.0949 µM",22%
same,"viability, T/C","second compound 0.1 µM, first compound 0.3 µM",11%
same,"viability, T/C","second compound 0.316 µM, first compound 0.000949 µM",78.1%
same,"viability, T/C","second compound 0.316 µM, first compound 0.003 µM",82.4%
same,"viability, T/C","second compound 0.316 µM, first compound 0.00949 µM",70%
same,"viability, T/C","second compound 0.316 µM, first compound 0.03 µM",58%
same,"viability, T/C","second compound 0.316 µM, first compound 0.0949 µM",23%
same,"viability, T/C","second compound 0.316 µM, first compound 0.3 µM",8.76%
same,"viability, T/C","second compound 1 µM, first compound 0.000949 µM",83.4%
same,"viability, T/C","second compound 1 µM, first compound 0.003 µM",74%
same,"viability, T/C","second compound 1 µM, first compound 0.00949 µM",76.6%
same,"viability, T/C","second compound 1 µM, first compound 0.03 µM",49.5%
same,"viability, T/C","second compound 1 µM, first compound 0.0949 µM",23%
same,"viability, T/C","second compound 1 µM, first compound 0.3 µM",7.77%
same,"viability, T/C","second compound 3.16 µM, first compound 0.000949 µM",94.8%
same,"viability, T/C","second compound 3.16 µM, first compound 0.003 µM",82.7%
same,"viability, T/C","second compound 3.16 µM, first compound 0.00949 µM",77.5%
same,"viability, T/C","second compound 3.16 µM, first compound 0.03 µM",50.6%
same,"viability, T/C","second compound 3.16 µM, first compound 0.0949 µM",19.3%
same,"viability, T/C","second compound 3.16 µM, first compound 0.3 µM",7.61%
same,"viability, T/C","second compound 10 µM, first compound 0.000949 µM",85.6%
same,"viability, T/C","second compound 10 µM, first compound 0.003 µM",77.2%
same,"viability, T/C","second compound 10 µM, first compound 0.00949 µM",68.4%
same,"viability, T/C","second compound 10 µM, first compound 0.03 µM",49.9%
same,"viability, T/C","second compound 10 µM, first compound 0.0949 µM",19.3%
same,"viability, T/C","second compound 10 µM, first compound 0.3 µM",7.73%
NC1CCC(NC2CC2c2ccccc2)CC1 (stereo not given) + Cc1c(S(C)(=O)=O)c(-c2cc(F)cc(N3CCN(c4ccc(NS(=O)(=O)c5ccc(NC(CCN6CCC(C(=O)OCCCP(=O)(O)O)CC6)CSc6ccccc6)c(S(=O)(=O)C(F)(F)F)c5)cc4)CC3)c2)c(-c2ccc(Cl)cc2)n1C(C)C,IC50,second compound 0.1 µM,> 100 nM
same,IC50,second compound 0.316 µM,> 100 nM
same,IC50,second compound 1 µM,> 100 nM
same,IC50,second compound 3.16 µM,> 100 nM
same,IC50,second compound 10 µM,> 100 nM
same,"viability, T/C","second compound 0.1 µM, first compound 0.000316 µM",94.6%
same,"viability, T/C","second compound 0.1 µM, first compound 0.001 µM",88.8%
same,"viability, T/C",[21],76.7%
same,"viability, T/C",[22],75.4%
same,"viability, T/C",[1],84%
same,"viability, T/C",[2],77.6%
same,"viability, T/C","second compound 0.316 µM, first compound 0.000316 µM",74.4%
same,"viability, T/C","second compound 0.316 µM, first compound 0.001 µM",76.5%
same,"viability, T/C",[23],75.3%
same,"viability, T/C",[24],70.1%
same,"viability, T/C",[5],66.5%
same,"viability, T/C",[6],76.1%
same,"viability, T/C","second compound 1 µM, first compound 0.000316 µM",79%
same,"viability, T/C","second compound 1 µM, first compound 0.001 µM",81.2%
same,"viability, T/C",[25],73.1%
same,"viability, T/C",[26],71.4%
same,"viability, T/C",[9],73.8%
same,"viability, T/C",[10],60.3%
same,"viability, T/C","second compound 3.16 µM, first compound 0.000316 µM",81.5%
same,"viability, T/C","second compound 3.16 µM, first compound 0.001 µM",73.1%
same,"viability, T/C",[27],73.9%
same,"viability, T/C",[28],71.2%
same,"viability, T/C",[13],62.3%
same,"viability, T/C",[14],65%
same,"viability, T/C","second compound 10 µM, first compound 0.000316 µM",69.6%
same,"viability, T/C","second compound 10 µM, first compound 0.001 µM",69.1%
same,"viability, T/C",[29],70.4%
same,"viability, T/C",[30],71.3%
same,"viability, T/C",[17],61.1%
same,"viability, T/C",[18],58.2%

# From PubChem BioAssay AID1963429 (Molecular Pharmacology Branch, DTP, NCI, 2024)
